{"source": "patent US20060241168A1", "about": "“Antidepressant” (priority 2002, published 2006)", "tested_on": "Akt", "experiment": "Akt phosphorylation in rat hippocampus glia mixed culturing system (immunoprecipitation, Western blotting)", "type": "cell-based", "settings": "rat hippocampus mixed culture; added at 300 nM or 100 nM; after one day and three days", "method": "The hippocampus was removed from a 3 day-old rat and the cells were dispersed in a nerve dispersing solution. After the number of the cells was counted, the cells were suspended in a DMEM/F-12 medium containing 10% FCS (Embryo Max) and was then seeded on a 6-well plate coated with type I collagen at a density of 3×10^5 cells/cm^2. After cultured for 4 days, the medium was replaced with a N2 supplement-containing medium. Compound (I) (Compound 17a was used; hereinafter referred to Compound A) was added to a well at 300 nM or 100 nM, and IGF-1 was added to a well at 100 ng/mL. One day or three days after the addition, the cells were collected using Lysis Buffer containing protease inhibitor cocktail. Each cell suspension was centrifuged at 20000 rpm for 30 minutes and the supernatant was collected. An anti-5G3 Akt antibody was added to the supernatant to immunoprecipitate intracellular Akt. The resulting precipitate was subjected to SDS-PAGE using a 5-20% polyacrylamide gel and then to Western blotting. An anti-Phospho Akt antibody as a primary antibody and an HRP-linked anti-Rabbit antibody as a secondary antibody were used to detect the bands of phosphorylated Akt (Ser473 and Thr308). In order to detect the total Akt, the PVDF membrane was immersed in a reprobe buffer and permeated at 55° C. for 20 minutes to peel the antibodies. […]", "data": [{"smiles": "COc1cc2c(cc1OC)CN(c1c(C)c(C)c3c(c1C)[C@@H](c1ccc(C)cc1)C(C)(C)O3)C2", "note": "[Compound A]", "values": [{"measurement": "phosphorylation of Akt at Ser473", "value": "promoted phosphorylation"}, {"measurement": "phosphorylation of Akt at Thr308", "value": "promoted phosphorylation"}]}]}
